Data from US20240018122A1, “PYRIDAZINYL AMINO DERIVATIVES AS ALK5 INHIBITORS” (CHIESI FARMACEUTICI S.P.A., priority 2020, published 2024).
pIC50: −log10 of the molar value. Where two headings read alike, the source gives them in different places.

Target: human ALK5 (Homo sapiens (Human), UniProt P36897)
Assay: ADP-GLO Kinases assay, inhibitory activity on ALK5
Format: biochemical
Experimental: The enzymatic activity of compounds of the present invention was monitored measuring the formation of ADP using the ADP-GLO Kinases assay. Following the incubation of the purified enzyme, a substrate and ATP, the produced ADP was converted into ATP, which in turn was converted into light by Ultra-Glo Luciferase. The luminescent signal positively correlated with ADP amount and kinase activity. […] The assay was performed in 384-well format and was validated using a selection of reference compounds that was tested in 11 point concentration-response curve.

[1] = purified recombinant human ALK5 2.6 nM, TGFβ1 peptide substrate, 25° C, 150 min incubation, ADP-Glo detection, read-out: ALK5 IC50

human ALK5, sequence (P36897 80-503 limits assumed): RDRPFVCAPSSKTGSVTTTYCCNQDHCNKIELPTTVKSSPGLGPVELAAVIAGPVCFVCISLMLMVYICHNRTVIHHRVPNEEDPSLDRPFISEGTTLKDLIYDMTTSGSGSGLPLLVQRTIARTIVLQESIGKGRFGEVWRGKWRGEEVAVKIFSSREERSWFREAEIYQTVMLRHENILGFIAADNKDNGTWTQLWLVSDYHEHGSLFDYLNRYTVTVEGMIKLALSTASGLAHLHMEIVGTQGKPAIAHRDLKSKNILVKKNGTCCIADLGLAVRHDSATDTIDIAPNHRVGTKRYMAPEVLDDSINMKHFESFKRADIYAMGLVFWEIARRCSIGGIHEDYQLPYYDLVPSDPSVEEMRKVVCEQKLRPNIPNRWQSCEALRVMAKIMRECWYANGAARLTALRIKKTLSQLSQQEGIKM

Compound	pIC50 [1]	pIC50
1-(4-{[6-(2-Chloro-5-Fluorophenyl)-3-Methylpyridazin-4-Yl]Amino}Pyridin-2-Yl)-3-[(1-Methylpiperidin-4-Yl)Methyl]Urea [Example 142]	> 9.00	
O=C(CCN1CCNCC1)Nc1cc(Nc2cnnc(-c3cc(Cl)ccc3F)c2)ccn1 [Example 2, N-(4-{[6-(5-Chloro-2-Fluorophenyl)Pyridazin-4-Yl]Amino}Pyridin-2-Yl)-3-(Piperazin-1-Yl)Propanamide]	> 9.00	
Fc1ccc(Cl)cc1-c1cc(Nc2ccnc3cc(OCCN4CCOCC4)ccc23)cnn1 [Example 3, N-[6-(5-Chloro-2-Fluorophenyl)Pyridazin-4-Yl]-7-[2-(Morpholin-4-Yl)Ethoxy]Quinolin-4-Amine]	> 9.00	
O=C(NCCN1CCOCC1)c1ccc2c(Nc3cnnc(-c4cc(Cl)ccc4F)c3)ccnc2c1 [Example 4, 4-{[6-(5-Chloro-2-Fluorophenyl)Pyridazin-4-Yl]Amino}-N-[2-(Morpholin-4-Yl)Ethyl]Quinoline-7-Carboxamide]	> 9.00	
O=C(OCCN1CCOCC1)c1ccc2nccc(Nc3cnnc(-c4cc(Cl)ccc4F)c3)c2c1 [Example 5, 2-(Morpholin-4-Yl)Ethyl 4-{[6-(5-Chloro-2-Fluorophenyl)Pyridazin-4-Yl]Amino}Quinoline-6-Carboxylate]	8.00 to 8.30	
O=C(OCCN1CCOCC1)c1ccc2c(Nc3cnnc(-c4cc(Cl)ccc4F)c3)ccnc2c1 [Example 6, 2-(Morpholin-4-Yl)Ethyl 4-{[6-(5-Chloro-2-Fluorophenyl)Pyridazin-4-Yl]Amino}Quinoline-7-Carboxylate]	> 9.00	
O=C(Nc1cc(Nc2cnnc(-c3cc(Cl)ccc3F)c2)ccn1)C1CC1 [Example 7, N-(4-{[6-(5-Chloro-2-Fluorophenyl)Pyridazin-4-Yl]Amino}Pyridin-2-Yl)Cyclopropanecarboxamide]	> 9.00	
O=C(CCCN1CCOCC1)Nc1cc(Nc2cnnc(-c3cc(Cl)ccc3F)c2)ccn1 [Example 8, N-(4-{[6-(5-Chloro-2-Fluorophenyl)Pyridazin-4-Yl]Amino}Pyridin-2-Yl)-4-(Morpholin-4-Yl)Butanamide]	> 9.00	
Fc1ccc(Cl)cc1-c1cc(Nc2ccnc3cc(OCCN4CCNCC4)ccc23)cnn1 [Example 9, N-[6-(5-chloro-2-fluorophenyl)pyridazin-4-yl]-7-[2-(piperazin-1-yl)ethoxy]quinolin-4-amine]	> 9.00	
O=C(NCCN1CCNCC1)c1ccc2c(Nc3cnnc(-c4cc(Cl)ccc4F)c3)ccnc2c1 [Example 10, 4-{[6-(5-Chloro-2-Fluorophenyl)Pyridazin-4-Yl]Amino}-N-[2-(Piperazin-1-Yl)Ethyl]Quinoline-7-Carboxamide]	> 9.00	
CN1CCN(CCOc2ccc3c(Nc4cnnc(-c5cc(Cl)ccc5F)c4)ccnc3c2)CC1 [Example 12, N-[6-(5-Chloro-2-Fluorophenyl)Pyridazin-4-Yl]-7-[2-(4-Methylpiperazin-1-Yl)Ethoxy]Quinolin-4-Amine]	> 9.00	
CN1CCN(CCNC(=O)c2ccc3c(Nc4cnnc(-c5cc(Cl)ccc5F)c4)ccnc3c2)CC1 [Example 13, 4-{[6-(5-Chloro-2-Fluorophenyl)Pyridazin-4-Yl]Amino}-N-[3-(4-Methylpiperazin-1-Yl)Ethyl]Quinoline-7-Carboxamide]	> 9.00	
CN1CCC(CCNC(=O)c2ccc3c(Nc4cnnc(-c5cc(Cl)ccc5F)c4)ccnc3c2)CC1 [Example 14, 4-{[6-(5-Chloro-2-Fluorophenyl)Pyridazin-4-Yl]Amino}-N-[2-(1-Methylpiperidin-4-Yl)Ethyl]Quinoline-7-Carboxamide]	> 9.00	
Cc1nnc(-c2cc(Cl)ccc2F)cc1Nc1ccnc(NC(=O)CCN2CCN(C)CC2)c1 [Example 16, N-(4-{[6-(5-chloro-2-fluorophenyl)-3-methylpyridazin-4-yl]amino}pyridin-2-yl)-3-(4-methylpiperazin-1-yl)propanamide]	> 9.00	
CN1CCC(CCOc2ccc3c(Nc4cnnc(-c5cc(Cl)ccc5F)c4)ccnc3c2)CC1 [Example 17, N-[6-(5-Chloro-2-Fluorophenyl)Pyridazin-4-Yl]-7-[2-(1-Methylpiperidin-4-Yl)Ethoxy]Quinolin-4-Amine]	> 9.00	
CN(CCC(=O)Nc1cc(Nc2cnnc(-c3cc(Cl)ccc3F)c2)ccn1)C1COC1 [Example 18, N-(4-{[6-(5-Chloro-2-Fluorophenyl)Pyridazin-4-Yl]Amino}Pyridin-2-Yl)-3-[Methyl(Oxetan-3-Yl)Amino]Propanamide]	> 9.00	
CN1CCC(OC(=O)c2ccc3c(Nc4cnnc(-c5cc(Cl)ccc5F)c4)ccnc3c2)CC1 [Example 20, 1-Methylpiperidin-4-Yl 4-{[6-(5-Chloro-2-Fluorophenyl)Pyridazin-4-Yl]Amino}Quinoline-7-Carboxylate]	> 9.00	

Compound	pIC50 [1]	pIC50
CN1CCN(CCNC(=O)c2c[nH]c3nccc(Nc4cnnc(-c5cc(Cl)ccc5F)c4)c23)CC1 [Example 21, 4-{[6-(5-Chloro-2-Fluorophenyl)Pyridazin-4-Yl]Amino}-N-[2-(4-Methylpiperazin-1-Yl)Ethyl]-1H-Pyrrolo[2,3-13]Pyridine-3-Carboxamide]	8.30 to 9.00	
CN1CCN(CCC(=O)Nc2cc(Nc3cnnc(-c4cc(Cl)ccc4F)c3)ccn2)C(=O)C1 [Example 22, N-(4-{[6-(5-Chloro-2-Fluorophenyl)Pyridazin-4-Yl]Amino}Pyridin-2-Yl)-3-(4-Methyl-2-Oxopiperazin-1-Yl)Propanamide]	8.30 to 9.00	
CN1CC(NC(=O)c2cc3c(Nc4cnnc(-c5cc(Cl)ccc5F)c4)ccnc3cn2)C1 [Example 23, 4-{[6-(5-Chloro-2-Fluorophenyl)Pyridazin-4-Yl]Amino}-N-(1-Methylazetidin-3-Yl)-1,7-Naphthyridine-6-Carboxamide]	8.00 to 8.30	
CN1CCN(CCC(=O)Nc2cc(Nc3cnnc(-c4cc(Cl)ccc4F)c3)ccn2)CC1=O [Example 24, N-(4-{[6-(5-Chloro-2-Fluorophenyl)Pyridazin-4-Yl]Amino}Pyridin-2-Yl)-3-(4-Methyl-3-Oxopiperazin-1-Yl)Propanamide]	8.30 to 9.00	
CN1CCN(CCNC(=O)c2cc3c(Nc4cnnc(-c5cc(Cl)ccc5F)c4)ccnc3[nH]2)CC1 [Example 25, 4-{[6-(5-chloro-2-fluorophenyl)pyridazin-4-yl]amino}-N-[2-(4-methylpiperazin-1-yl)ethyl]-1H-pyrrolo[2,3-b]pyridine-2-carboxamide]	> 9.00	
CN1CCC(NC(=O)c2cc3c(Nc4cnnc(-c5cc(Cl)ccc5F)c4)ccnc3cn2)CC1 [Example 26, 4-{[6-(5-Chloro-2-Fluorophenyl)Pyridazin-4-Yl]Amino}-N-(1-Methylpiperidin-4-Yl)-1,7-Naphthyridine-6-Carboxamide]	8.30 to 9.00	
CN1CCC(CCNC(=O)c2cc3c(Nc4cnnc(-c5cc(Cl)ccc5F)c4)ccnc3[nH]2)CC1 [Example 27, 4-{[6-(5-Chloro-2-Fluorophenyl)Pyridazin-4-Yl]Amino}-N-[2-(1-Methylpiperidin-4-Yl)Ethyl]-1H-Pyrrolo[2,3-b]Pyridine-2-Carboxamide]	> 9.00	
CN1CCN(C(=O)Oc2ccc3c(Nc4cnnc(-c5cc(Cl)ccc5F)c4)ccnc3c2)CC1 [Example 28, 4-{[6-(5-Chloro-2-Fluorophenyl)Pyridazin-4-Yl]Amino}Quinolin-7-Yl 4-Methylpiperazine-1-Carboxylate]		8.30 to 9.00
CN1CCN(CCCOc2ccc3c(Nc4cnnc(-c5cc(Cl)ccc5F)c4)ccnc3c2)CC1 [Example 29, N-[6-(5-Chloro-2-Fluorophenyl)Pyridazin-4-Yl]-7-[3-(4-Methylpiperazin-1-Yl)Propoxy]Quinolin-4-Amine]	> 9.00	
CCN1CCN(CCOc2ccc3c(Nc4cnnc(-c5cc(Cl)ccc5F)c4)ccnc3c2)CC1 [Example 30, N-[6-(5-Chloro-2-Fluorophenyl)Pyridazin-4-Yl]-7-[2-(4-Ethylpiperazin-1-Yl)Ethoxy]Quinolin-4-Amine]	> 9.00	
CC(=O)N1CCN(CCC(=O)Nc2cc(Nc3cnnc(-c4cc(Cl)ccc4F)c3)ccn2)CC1 [Example 31, 3-(4-Acetylpiperazin-1-Yl)-N-(4-{[6-(5-Chloro-2-Fluorophenyl)Pyridazin-4-Yl]Amino}Pyridin-2-Yl)Propanamide]	> 9.00	
CN1CCN(CCC(=O)Nc2ccc3c(Nc4cnnc(-c5cc(Cl)ccc5F)c4)ccnc3c2)CC1 [Example 32, N-(4-{[6-(5-Chloro-2-Fluorophenyl)Pyridazin-4-Yl]Amino}Quinolin-7-Yl)-3-(4-Methylpiperazin-1-Yl)Propanamide]	> 9.00	
CN1CCCN(CCC(=O)Nc2cc(Nc3cnnc(-c4cc(Cl)ccc4F)c3)ccn2)C1 [Example 33, N-(4-{[6-(5-Chloro-2-Fluorophenyl)Pyridazin-4-Yl]Amino}Pyridin-2-Yl)-3-(3-Methyl-1,3-Diazinan-1-Yl)Propanamide]	> 9.00	
CS(=O)(=O)N1CCN(CCC(=O)Nc2cc(Nc3cnnc(-c4cc(Cl)ccc4F)c3)ccn2)CC1 [Example 34, N-(4-{[6-(5-Chloro-2-Fluorophenyl)Pyridazin-4-Yl]Amino}Pyridin-2-Yl)-3-(4-Methanesulfonylpiperazin-1-Yl)Propanamide]	8.30 to 9.00	
CC(=O)N1CCN(CCOc2ccc3c(Nc4cnnc(-c5cc(Cl)ccc5F)c4)ccnc3c2)CC1 [Example 35, 1-(4-{2-[(4-{[6-(5-Chloro-2-Fluorophenyl)Pyridazin-4-Yl]Amino}Quinolin-7-Yl)Oxy]Ethyl}Piperazin-1-Yl)Ethan-1-One]	> 9.00	
CS(=O)(=O)N1CCN(CCOc2ccc3c(Nc4cnnc(-c5cc(Cl)ccc5F)c4)ccnc3c2)CC1 [Example 36, N-[6-(5-Chloro-2-Fluorophenyl)Pyridazin-4-Yl]-7-[2-(4-Methanesulfonylpiperazin-1-Yl)Ethoxy]Quinolin-4-Amine]	> 9.00	
CC(C)c1ccc(F)c(-c2cc(Nc3ccnc4cc(OCCN5CCN(C)CC5)ccc34)cnn2)c1 [Example 37, N-{6-[2-Fluoro-5-(Propan-2-Yl)Phenyl]Pyridazin-4-Yl}-7-[2-(4-Methylpiperazin-1-Yl)Ethoxy]Quinolin-4-Amine]	> 9.00	
